Here are results for eight compounds from US10183943B2, “Heterocyclic compounds and their use in preventing or treating bacterial infections” (MUTABILIS, priority 2015, dated 2019).

In general, pIC50 refers to the negative decadic logarithm of the IC50, by convention in mol/L. The term MIC denotes the lowest concentration found to suppress growth.

One experiment has as its target T1, KPC-2 (Klebsiella pneumoniae, UniProt Q9F663).
T1 construct: made in house; host or cells: E. coli
Description: β-lactamase inhibitory activity, determination of IC50 (nitrocefin hydrolysis). It is filed as biochemical. Particulars: class (A); nitrocefin 200 μM, 30 min pre-incubation; read-out: IC50 β-lactamase KPC-2.

A further experiment addresses T2, OXA-1 (Escherichia coli, UniProt P13661).
T2 construct: made in house; host or cells: E. coli
Described as above. The note with it: class (D); nitrocefin 200 μM, 30 min pre-incubation; read-out: IC50 β-lactamase OXA-1. It is filed as biochemical.

In a further experiment the target is AmpC (P99) (Enterobacter cloacae, UniProt P05364). The experiment is described as above.
The next experiment deals with T3, TEM-1 (Escherichia coli, UniProt P62593).
T3 construct: made in house; host or cells: E. coli
The experiment is described as above. The class given is biochemical.

A further experiment concerns the target T4, CTX-M-15 (Escherichia coli, UniProt Q9EXV5).
T4 construct: made in house; host or cells: E. coli
The description is as above. The class given is biochemical. The note with it: class (A); nitrocefin 200 μM, 30 min pre-incubation; read-out: IC50 β-lactamase CTX-M-15.

Another experiment addresses T5, OXA-11 (Pseudomonas aeruginosa, UniProt Q06778).
T5 construct: made in house; host or cells: E. coli
The experiment is described as above. It is filed as biochemical.

Another experiment concerns the target AmpC P. aeruginosa (Pseudomonas aeruginosa, UniProt P24735). The description is as above.
In a further experiment the target is T6, SHV-1 (Klebsiella pneumoniae, UniProt P0AD64).
T6 construct: made in house; host or cells: E. coli
The experiment is described as above. It is filed as biochemical.

Experiment [1] relates to P. aeruginosa CIP107051 (TEM-24). Description: MIC of compounds alone, broth microdilution. It is filed as cell-based. Particulars: Pseudomonas aeruginosa; strain CIP107051 (P. aeruginosa); read-out: MIC compounds of the invention alone. The protocol: (§1) Method 2: MIC of Compounds and Synergy with Ceftazidime Against Bacterial Isolates (Table 2 and 3)
(§2) Compounds of the present invention were assessed against genotyped bacterial strains alone or in combination with the β-lactam ceftazidime (CAZ). In the assays, MICs of said compounds, or of ceftazidime at fixed concentrations of said compounds were determined by the broth microdilution method according to the Clinical Laboratory Standards Institute (CLSI-M7-A7). Briefly, compounds alone according to the invention were prepared in DMSO and spotted (2 μL each) on sterile polystyrene plates (Corning, 3788). Compounds and ceftazidime dilutions were prepared in DMSO and spotted (1 μL each) on sterile polystyrene plates (Corning, 3788). Log phase bacterial suspensions were adjusted to a final density of 5×10^5 cfu/mL in cation-adjusted Mueller-Hinton broth (Becton-Dickinson) and added to each well (98 μL). Microplates were incubated for 16-20 h at 35° C. in ambient air. The MIC of the compounds was defined as the lowest concentration of said compounds that prevented bacterial growth as read by visual inspection. The MIC of ceftazidime at each compound concentration was defined as the lowest concentration of ceftazidime that prevented bacterial growth as read by visual inspection.
For orientation: Broth dilution looks for growth in wells or tubes with falling amounts of substance.

Experiment [2] deals with K. pneumoniae BAA-1898 (TEM-1, SHV-11, SHV-12, KPC-2). Kind of experiment: MIC of compounds alone, broth microdilution. It is filed as cell-based. Particulars: Klebsiella pneumoniae, BAA1898; strain BAA-1898 (K. pneumoniae); read-out: MIC compounds of the invention alone. As to the method:
as §1, §2

A further experiment relates to E. cloacae P99 (AmpC). Kind of experiment: MIC of compounds alone, broth microdilution. The class given is cell-based. Particulars: Enterobacter cloacae; strain P99 (E. cloacae); read-out: MIC compounds of the invention alone. As to the method: as §1, §2
Experiment [3] relates to K. pneumoniae 6299 (TEM-1, SHV-11, OXA-163). Description: MIC of compounds alone, broth microdilution. Particulars: Klebsiella pneumoniae; strain 6299 (K. pneumoniae); read-out: MIC compounds of the invention alone. The class given is cell-based. As to the method: as §1, §2
The test system of experiment [4] is E. coli 190317 (TEM-1, SHV-12, CTX-M-15, OXA-1). Kind of experiment: MIC of compounds alone, broth microdilution. The class given is cell-based. The note with it: Escherichia coli, read-out: MIC compounds of the invention alone. The protocol: as §1, §2
The next experiment deals with E. coli RGN238 (OXA-1). Kind of experiment: MIC of compounds alone, broth microdilution. Particulars: Escherichia coli; strain RGN238 (E. coli); read-out: MIC compounds of the invention alone. It is filed as cell-based. The protocol:
as §1, §2

The subject of experiment [5] is E. coli 131119 (TEM-1, OXA-48). Kind of experiment: MIC of compounds alone, broth microdilution. It is filed as cell-based. The note with it: Escherichia coli; strain 131119 (E. coli); read-out: MIC compounds of the invention alone. As to the method: as §1, §2
The target in another experiment is T7, OXA-48 (Klebsiella pneumoniae, UniProt Q6XEC0).
T7 construct: made in house; host or cells: E. coli
Kind of experiment: β-lactamase inhibitory activity, determination of IC50 (nitrocefin hydrolysis). The note with it: class (D); nitrocefin 200 μM, 30 min pre-incubation; read-out: IC50 β-lactamase OXA-48. The class given is biochemical.

The target of the next experiment is T8, OXA-15 (Pseudomonas aeruginosa, UniProt Q51574).
T8 construct: made in house; host or cells: E. coli
Kind of experiment: biochemical.

pIC50: −log10 of the molar value.

T5 sequence (Q06778 21-266): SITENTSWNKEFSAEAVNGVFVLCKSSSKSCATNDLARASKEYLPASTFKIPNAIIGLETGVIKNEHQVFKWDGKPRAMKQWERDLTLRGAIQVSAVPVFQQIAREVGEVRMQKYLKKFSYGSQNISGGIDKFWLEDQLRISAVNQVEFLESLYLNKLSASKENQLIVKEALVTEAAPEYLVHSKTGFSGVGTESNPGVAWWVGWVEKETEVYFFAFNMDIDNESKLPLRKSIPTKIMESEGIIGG
T4 sequence (Q9EXV5 entry or part of it): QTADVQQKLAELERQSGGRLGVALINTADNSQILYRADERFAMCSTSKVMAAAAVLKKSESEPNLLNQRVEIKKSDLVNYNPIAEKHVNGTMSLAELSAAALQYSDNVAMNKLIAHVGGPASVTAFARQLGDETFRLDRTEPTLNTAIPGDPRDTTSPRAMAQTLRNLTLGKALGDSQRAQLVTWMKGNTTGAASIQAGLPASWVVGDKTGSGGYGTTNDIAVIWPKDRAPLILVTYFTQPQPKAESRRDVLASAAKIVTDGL
T2 sequence (P13661 26-276): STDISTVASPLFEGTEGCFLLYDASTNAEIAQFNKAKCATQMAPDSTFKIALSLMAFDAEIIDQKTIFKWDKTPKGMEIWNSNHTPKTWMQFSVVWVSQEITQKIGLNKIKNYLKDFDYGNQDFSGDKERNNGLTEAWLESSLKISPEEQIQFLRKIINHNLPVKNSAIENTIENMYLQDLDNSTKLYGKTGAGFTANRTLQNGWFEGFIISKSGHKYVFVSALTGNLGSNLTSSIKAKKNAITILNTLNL
T1 sequence (Q9F663 25-293 limits assumed): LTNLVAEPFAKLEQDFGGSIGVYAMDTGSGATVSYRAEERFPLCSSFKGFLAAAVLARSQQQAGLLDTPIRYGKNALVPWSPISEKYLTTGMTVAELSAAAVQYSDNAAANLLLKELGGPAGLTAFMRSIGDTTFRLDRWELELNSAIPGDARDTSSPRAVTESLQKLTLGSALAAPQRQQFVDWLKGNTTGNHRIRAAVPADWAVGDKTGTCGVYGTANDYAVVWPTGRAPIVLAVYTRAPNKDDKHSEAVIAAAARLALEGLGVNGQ
T7 sequence (Q6XEC0 23-265 limits assumed): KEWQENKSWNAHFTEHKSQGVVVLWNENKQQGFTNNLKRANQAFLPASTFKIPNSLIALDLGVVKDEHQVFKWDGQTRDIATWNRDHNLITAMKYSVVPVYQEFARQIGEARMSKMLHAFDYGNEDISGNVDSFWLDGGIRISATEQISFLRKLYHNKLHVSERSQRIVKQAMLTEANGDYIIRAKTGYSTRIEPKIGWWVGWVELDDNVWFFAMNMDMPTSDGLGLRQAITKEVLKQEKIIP
T8 sequence (Q51574 22-275): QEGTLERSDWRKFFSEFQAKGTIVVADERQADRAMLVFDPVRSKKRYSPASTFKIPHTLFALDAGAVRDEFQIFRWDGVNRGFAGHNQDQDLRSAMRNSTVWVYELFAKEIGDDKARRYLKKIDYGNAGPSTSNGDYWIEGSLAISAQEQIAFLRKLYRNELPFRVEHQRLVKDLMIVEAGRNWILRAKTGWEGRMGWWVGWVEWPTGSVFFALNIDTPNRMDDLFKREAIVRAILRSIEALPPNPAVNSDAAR
T3 sequence (P62593 24-286 limits assumed): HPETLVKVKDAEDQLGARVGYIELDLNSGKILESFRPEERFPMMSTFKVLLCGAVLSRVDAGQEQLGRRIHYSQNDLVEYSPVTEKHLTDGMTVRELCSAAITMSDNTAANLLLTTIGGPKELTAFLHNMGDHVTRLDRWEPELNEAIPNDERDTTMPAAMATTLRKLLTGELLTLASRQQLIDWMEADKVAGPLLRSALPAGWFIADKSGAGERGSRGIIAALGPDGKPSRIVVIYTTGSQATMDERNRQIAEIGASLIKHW
T6 sequence (P0AD64 22-286): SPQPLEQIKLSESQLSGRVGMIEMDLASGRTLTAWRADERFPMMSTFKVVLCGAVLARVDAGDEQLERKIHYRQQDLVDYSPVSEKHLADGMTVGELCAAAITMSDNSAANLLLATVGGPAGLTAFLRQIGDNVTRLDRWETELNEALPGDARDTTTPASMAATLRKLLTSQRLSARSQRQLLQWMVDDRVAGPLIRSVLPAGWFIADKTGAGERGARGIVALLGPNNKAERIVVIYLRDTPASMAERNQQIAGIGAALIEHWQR
Chain of AmpC P. aeruginosa (P24735 27-397): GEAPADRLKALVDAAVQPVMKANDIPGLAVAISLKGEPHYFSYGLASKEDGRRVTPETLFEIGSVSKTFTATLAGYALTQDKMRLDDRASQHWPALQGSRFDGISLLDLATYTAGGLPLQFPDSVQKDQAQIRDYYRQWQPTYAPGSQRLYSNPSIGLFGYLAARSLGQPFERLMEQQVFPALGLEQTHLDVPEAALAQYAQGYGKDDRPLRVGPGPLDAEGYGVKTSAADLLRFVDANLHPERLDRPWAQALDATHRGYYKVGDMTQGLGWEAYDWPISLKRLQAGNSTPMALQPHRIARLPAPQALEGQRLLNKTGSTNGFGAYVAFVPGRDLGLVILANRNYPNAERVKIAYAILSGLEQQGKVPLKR
Chain of AmpC (P99) (P05364 21-381): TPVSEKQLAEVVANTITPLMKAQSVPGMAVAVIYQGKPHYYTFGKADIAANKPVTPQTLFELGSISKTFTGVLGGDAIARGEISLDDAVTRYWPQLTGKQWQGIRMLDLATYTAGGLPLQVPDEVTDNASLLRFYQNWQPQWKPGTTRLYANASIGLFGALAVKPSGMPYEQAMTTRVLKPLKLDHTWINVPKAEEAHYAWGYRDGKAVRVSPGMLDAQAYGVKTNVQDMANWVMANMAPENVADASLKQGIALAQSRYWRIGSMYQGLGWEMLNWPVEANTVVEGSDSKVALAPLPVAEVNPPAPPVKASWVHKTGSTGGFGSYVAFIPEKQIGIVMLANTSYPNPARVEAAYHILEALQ

Regarding `O=C1N2CC=C(c3cncnc3)C(C2)N1OS(=O)(=O)[O-].[Na+]` (stereo not shown) [Example 10, Sodium [4-(pyrimidin-5-yl)-7-oxo-1,6-diazabicyclo[3.2.1]oct-3-en-6-yl] sulfate], the pIC50 on KPC-2 was 6.89; at OXA-1 it was 6.70; against AmpC (P99), 5.96; against TEM-1, 8.11; on CTX-M-15, 8.08; at OXA-11, 5.89. Further, the negative logarithm of the IC50 (pIC50) against AmpC P. aeruginosa was 5.59; against SHV-1, 7.68; at OXA-48, 8.21; at OXA-15, 6.85. The MIC in [1] was greater than 32 µg/mL; in experiment [2], greater than 32 µg/mL; with E. cloacae P99 (AmpC), 16 µg/mL; in [3], greater than 32 µg/mL; in experiment [4] it was greater than 32 µg/mL; in the experiment on E. coli RGN238 (OXA-1) it was greater than 32 µg/mL. Further, the minimum inhibitory concentration (MIC) in [5] was determined as 16 µg/mL.

Consider `O=C1N2CC=C(c3ccccn3)C(C2)N1OS(=O)(=O)[O-].[Na+]` (stereo not shown) [Example 11, Sodium [4-(2-pyridyl)-7-oxo-1,6-diazabicyclo[3.2.1]oct-3-en-6-yl]sulfate], for which the negative logarithm of the IC50 (pIC50) on KPC-2 was 5.74; on OXA-1, 5.89; against AmpC (P99) it was 5.05; at TEM-1 it was 7.57; at CTX-M-15 it was 7.54; on OXA-11, 5.19. Also, the negative-log IC50 (pIC50) at AmpC P. aeruginosa was 5.34; against SHV-1 it was 7.25; at OXA-48, 8.29; against OXA-15 it was 6.51. For the same compound, the MIC (in experiment [1]; in [2]; in the experiment with E. cloacae P99 (AmpC); in [3]; in experiment [4]; in the experiment on E. coli RGN238 (OXA-1)) was greater than 32 µg/mL in each case. For the same compound, the minimal inhibitory concentration (MIC) in [5] was greater than 32 µg/mL.

As to `O=C1N2CC=C(c3cnccn3)C(C2)N1OS(=O)(=O)[O-].[Na+]` (stereo not shown) [Example 12, Sodium [4-(pyrazin-2-yl)-7-oxo-1,6-diazabicyclo[3.2.1]oct-3-en-6-yl]sulfate], the negative-log IC50 (pIC50) at KPC-2 was 6.51; at OXA-1 it was 6.46; on AmpC (P99), 5.85; against TEM-1, 8.51; at CTX-M-15, 8.24; against OXA-11, 5.92. The pIC50 against AmpC P. aeruginosa is 5.80; on SHV-1, 8.16; at OXA-48, 8.49; against OXA-15, 7.18. Further, the MIC (in experiment [1]; in [2]; in the experiment on E. cloacae P99 (AmpC); in experiment [3]; in [4]; in the experiment with E. coli RGN238 (OXA-1)) was greater than 32 µg/mL throughout. In experiment [5], the MIC is 16 µg/mL.

In the case of `Cn1cccc(C2=CCN3CC2N(OS(=O)(=O)[O-])C3=O)c1=O.[Na+]` (stereo not shown) [Example 16, Sodium [4-(N-methyl-2-oxo-3-pyridyl)-7-oxo-1,6-diazabicyclo[3.2.1]oct-3-en-6-yl] sulfate], the pIC50 at KPC-2 is 5.35; at OXA-1 it was 6.14; on AmpC (P99), 5.14; on TEM-1, 7.25; at CTX-M-15 it was 7.00; against OXA-11, 5.13. The pIC50 was 5.15 at AmpC P. aeruginosa, 6.92 against SHV-1, 8.00 on OXA-48 and 7.57 on OXA-15. Besides, the minimum inhibitory concentration (MIC) (in experiment [1]; in experiment [2]; with E. cloacae P99 (AmpC); in experiment [3]; in experiment [4]; in the experiment with E. coli RGN238 (OXA-1)) was greater than 32 µg/mL each time. In addition, the MIC in [5] is greater than 32 µg/mL.

On to `Cn1nc(C2=CCN3CC2N(OS(=O)(=O)[O-])C3=O)ccc1=O.[Na+]` (stereo not shown) [Example 17, Sodium [4-(1-methyl-6-oxo-pyridazin-3-yl)-7-oxo-1,6-diazabicyclo[3.2.1]oct-3-en-6-yl] sulfate], for which the pIC50 was 6.89 at KPC-2; 6.48 at OXA-1; 5.64 on AmpC (P99); 8.92 at TEM-1; 8.24 on CTX-M-15; 5.85 against OXA-11. For the same compound, the negative logarithm of the IC50 (pIC50) against AmpC P. aeruginosa is 6.04; at SHV-1 it was 8.55; at OXA-48, 8.41; at OXA-15, 7.24. The MIC in [1] is greater than 32 µg/mL; in experiment [2] it was greater than 32 µg/mL; in the experiment with E. cloacae P99 (AmpC), 16 µg/mL; in [3] it was greater than 32 µg/mL; in experiment [4] it was 4 µg/mL; in the experiment on E. coli RGN238 (OXA-1), 32 µg/mL. The minimum inhibitory concentration (MIC) in experiment [5] amounted to 16 µg/mL.

Turning to `Cn1c(C2=CCN3CC2N(OS(=O)(=O)[O-])C3=O)cccc1=O.[Na+]` (stereo not shown) [Example 18, Sodium [4-(N-methyl-6-oxo-2-pyridyl)-7-oxo-1,6-diazabicyclo[3.2.1]oct-3-en-6-yl] sulfate], the negative logarithm of the IC50 (pIC50) was 5.74 at KPC-2; 7.46 at OXA-1; 6.64 at AmpC (P99); 8.57 against TEM-1; 7.77 on CTX-M-15; 6.27 on OXA-11. Moreover, the pIC50 against AmpC P. aeruginosa is 5.57; at SHV-1, 7.96; on OXA-48 it was 7.70; against OXA-15, 7.85. For the same compound, the minimal inhibitory concentration (MIC) in experiment [1] was greater than 32 µg/mL; in experiment [2], greater than 32 µg/mL; in the experiment on E. cloacae P99 (AmpC), 16 µg/mL; in experiment [3], greater than 32 µg/mL; in experiment [4], greater than 32 µg/mL; with E. coli RGN238 (OXA-1) it was greater than 32 µg/mL. Besides, the minimum inhibitory concentration (MIC) in experiment [5] is greater than 32 µg/mL.

`Cn1cnc(C2=CCN3CC2N(OS(=O)(=O)[O-])C3=O)cc1=O.[Na+]` (stereo not shown) [Example 20, Sodium [4-(N-methyl-6-oxo-pyrimidin-4-yl)-7-oxo-1,6-diazabicyclo[3.2.1]oct-3-en-6-yl] sulfate]: the negative-log IC50 (pIC50) was 7.06 on KPC-2; 5.72 on OXA-1; 5.72 against AmpC (P99); 9.00 against TEM-1; 8.46 on CTX-M-15; 6.37 at OXA-11. Also, the pIC50 against AmpC P. aeruginosa is 5.49; at SHV-1, 8.17; on OXA-48, 8.66; against OXA-15 it was 7.03. Further, the minimal inhibitory concentration (MIC) in experiment [1] was greater than 32 µg/mL; in [2], greater than 32 µg/mL; with E. cloacae P99 (AmpC) it was 32 µg/mL; in [3], greater than 32 µg/mL; in experiment [4] it was 8 µg/mL; in the experiment with E. coli RGN238 (OXA-1), greater than 32 µg/mL. Further, the MIC in experiment [5] was 32 µg/mL.

Turning to `Cn1cc(C2=CCN3CC2N(OS(=O)(=O)[O-])C3=O)c(=O)n(C)c1=O.[Na+]` (stereo not shown) [Example 23, Sodium [4-(1,3-dimethyluracil-5-yl)-7-oxo-1,6-diazabicyclo[3.2.1]oct-3-en-6-yl] sulfate], the pIC50 on KPC-2 was 7.01; on OXA-1, 6.06; against AmpC (P99), 6.24; against TEM-1, 8.82; on CTX-M-15, 7.92; against OXA-11, 5.66. The negative-log IC50 (pIC50) against AmpC P. aeruginosa is 5.80; on SHV-1, 8.51; at OXA-48, 8.32; against OXA-15, 6.96. Besides, the MIC (in experiment [1]; in experiment [2]; in the experiment on E. cloacae P99 (AmpC); in experiment [3]; in experiment [4]; with E. coli RGN238 (OXA-1)) was greater than 32 µg/mL in each case. The MIC in [5] is 32 µg/mL.
